Patent publication US10543240B2, “Topical composition containing glycerin and yeast extract” (Johnson & Johnson Consumer Inc., priority 2016, dated 2020)

System: S. epidermis (ATCC 12228)
Assay: Growth of S. epidermidis under aerobic conditions, time-to-detection (BacT/Alert 3D system)
Type: cell-based, Staphylococcus epidermidis
Settings: S. epidermidis inoculated at 1000 CFU/mL in standard aerobic bottles; test material in PBS; average of three samples; PBS control = 100
Text: The ability of four test materials to grow S. epidermis (ATCC 12228) under aerobic conditions was investigated. The materials were: 1) phosphate buffered saline buffer solution (PBS), 2) PBS containing 5% of an aqueous solution containing 0.13 weight percent of an extract of Pichia anomala grown on kiwi, 3) PBS containing 3% glycerol, and 4) PBS containing both 5% of an aqueous solution containing 0.13 weight percent of an extract of Pichia anomala grown on kiwi and 3% glycerol. The BacT/Alert 3D system (BioMerieux Inc.) was used to determine the time-to-detection (“TTD”) of S. epidermidis according to the manufacturer's instruction. S. epidermidis were inoculated at concentrations of 1000 colony-forming units (CFU)/mL into standard aerobic bottles (BioMerieux Inc.). The test materials were prepared in PBS and injected into the standard aerobic bottles at the indicated final concentration with the volume of 1 ml. Standard aerobic bottles inoculated with S. epidermidis only and 10 ml of PBS was used as control. Bottles were then inserted into the BacT/Alert 3D system until stationary growth phase. The TTD values were automatically calculated by the BacT/Alert 3D according to the growth algorism. Three samples were tested for each test material and the resulted were averaged. Relative Time-to-Detection (RTTD) was calculated as (TTD treatment-TTD control)/TTD control*100.

## OCC(O)CO [3% Glycerol, glycerol]
  RTTD (Relative Time-to-Detection): 92.56
